{"source": "paper PMC4674391", "about": "(Archives of toxicology, 2015)", "key": {"[1]": {"test_system": "zfOatp1d1", "type": "in vitro ADME, zebrafish (Danio rerio)"}, "[2]": {"test_system": "zfOatp1f1", "type": "in vitro ADME, zebrafish (Danio rerio)"}, "[3]": {"test_system": "zfOatp1f2-1", "type": "in vitro ADME, zebrafish (Danio rerio)"}, "[4]": {"test_system": "zfOatp1f2-2", "type": "in vitro ADME, zebrafish (Danio rerio)"}, "[5]": {"test_system": "zfOatp1f3", "type": "in vitro ADME, zebrafish (Danio rerio)"}, "[6]": {"test_system": "Ser/Thr protein phosphatases (ser/thrPP)", "conditions": "cited from earlier work"}, "[7]": {"test_system": "OATPs", "conditions": "cited from earlier work"}, "[8]": {"test_system": "carp", "conditions": "in vivo, po; cited from earlier work"}, "[9]": {"test_system": "zfOatp1f4-1", "type": "in vitro ADME, zebrafish (Danio rerio)"}, "[10]": {"test_system": "zfOatp1f4-2", "type": "in vitro ADME, zebrafish (Danio rerio)"}, "[11]": {"test_system": "zfOatp1d1", "type": "in vitro ADME, zebrafish (Danio rerio)", "remark": "listed apart in the source"}, "[12]": {"test_system": "zfOatp1f1", "type": "in vitro ADME, zebrafish (Danio rerio)", "remark": "listed apart in the source"}, "[13]": {"test_system": "zfOatp1f2-1", "type": "in vitro ADME, zebrafish (Danio rerio)", "remark": "listed apart in the source"}, "[14]": {"test_system": "zfOatp1f4-1", "type": "in vitro ADME, zebrafish (Danio rerio)", "remark": "listed apart in the source"}, "[15]": {"test_system": "zfOatp1f4-2", "type": "in vitro ADME, zebrafish (Danio rerio)", "remark": "listed apart in the source"}, "[16]": {"test_system": "zfOatp2b1", "type": "in vitro ADME, zebrafish (Danio rerio)"}, "[17]": {"test_system": "zfOatp1f2-2", "type": "in vitro ADME, zebrafish (Danio rerio)", "remark": "listed apart in the source"}, "[18]": {"test_system": "zfOatp1f3", "type": "in vitro ADME, zebrafish (Danio rerio)", "remark": "listed apart in the source"}, "[19]": {"test_system": "zfOatp4a1", "type": "in vitro ADME, zebrafish (Danio rerio)"}, "[20]": {"conditions": "uptake for up to 30 min, transfected HEK293 (Figure S1)"}}, "note": "Counter-ions that a name gives are not always drawn."}
{"molecule": "Microcystin-LW [MC-LW]", "values": [{"measurement": "MC congener transport (screen)", "setting": "[1]", "result": "transported all tested MC-congeners"}, {"measurement": "time within which transport occurred", "setting": "[1]", "result": "≤ 1", "unit": "h"}, {"measurement": "MC congener transport (screen)", "setting": "[2]", "result": "absence of MC transport"}, {"measurement": "MC congener transport (screen)", "setting": "[3]", "result": "did take up"}, {"measurement": "time dependent MC uptake, relative speed", "setting": "[3]", "result": "slower than that observed for zfOatp1d1"}, {"measurement": "MC congener transport (screen)", "setting": "[4]", "result": "did not transport any of the four MC-congeners tested"}, {"measurement": "MC congener transport (screen)", "setting": "[5]", "result": "did not transport any of the four MC-congeners tested"}, {"measurement": "inhibition of ser/thrPP activities", "setting": "[6]", "result": "approximately equimolar concentrations"}, {"measurement": "MC congener transport by OATPs", "setting": "[7]", "result": "transport was demonstrated"}]}
{"molecule": "Microcystin-LR [MC-LR]", "values": [{"measurement": "MC congener transport (screen)", "setting": "[1]", "result": "transported all tested MC-congeners"}, {"measurement": "concentration dependent uptake (saturability)", "setting": "[1]", "result": "saturable"}, {"measurement": "time up to which uptake is linear", "setting": "[1]", "result": "up to 6 h"}, {"measurement": "MC congener transport (screen)", "setting": "[2]", "result": "absence of MC transport"}, {"measurement": "MC congener transport (screen)", "setting": "[3]", "result": "did take up"}, {"measurement": "time dependent MC uptake, relative speed", "setting": "[3]", "result": "much slower than MC-LW and MC-LF"}, {"measurement": "MC congener transport (screen)", "setting": "[4]", "result": "did not transport any of the four MC-congeners tested"}, {"measurement": "MC congener transport (screen)", "setting": "[5]", "result": "did not transport any of the four MC-congeners tested"}, {"measurement": "inhibition of ser/thrPP activities", "setting": "[6]", "result": "approximately equimolar concentrations"}, {"measurement": "MC congener transport by OATPs", "setting": "[7]", "result": "comparably minor extent"}, {"measurement": "MC-LR in brain and muscle tissue", "setting": "[8]", "result": "detectable"}, {"measurement": "pathological changes in hepatopancreas and kidney", "setting": "[8]", "result": "time-dependent pathological changes"}]}
{"molecule": "Microcystin-LF [MC-LF]", "values": [{"measurement": "MC congener transport (screen)", "setting": "[1]", "result": "transported all tested MC-congeners"}, {"measurement": "affinity of zfOatp1d1 (Km), MC-LF compared to MC-LR", "setting": "[1]", "result": 2, "unit": "fold"}, {"measurement": "concentration dependent uptake (saturability)", "setting": "[1]", "result": "saturable"}, {"measurement": "relative Vmax (uptake velocity), MC-LF versus MC-LR", "setting": "[1]", "result": 6, "unit": "fold"}, {"measurement": "time within which transport occurred", "setting": "[1]", "result": "≤ 1", "unit": "h"}, {"measurement": "MC congener transport (screen)", "setting": "[2]", "result": "absence of MC transport"}, {"measurement": "MC congener transport (screen)", "setting": "[3]", "result": "did take up"}, {"measurement": "time dependent MC uptake, relative speed", "setting": "[3]", "result": "slower than that observed for zfOatp1d1"}, {"measurement": "MC congener transport (screen)", "setting": "[4]", "result": "did not transport any of the four MC-congeners tested"}, {"measurement": "MC congener transport (screen)", "setting": "[5]", "result": "did not transport any of the four MC-congeners tested"}, {"measurement": "MC congener transport (screen)", "setting": "[9]", "result": "transported"}, {"measurement": "time dependent MC uptake, relative speed", "setting": "[9]", "result": "Comparable transport"}, {"measurement": "MC congener transport (screen)", "setting": "[10]", "result": "transported"}, {"measurement": "time dependent MC uptake, relative speed", "setting": "[10]", "result": "Comparable transport"}, {"measurement": "inhibition of ser/thrPP activities", "setting": "[6]", "result": "approximately equimolar concentrations"}, {"measurement": "MC congener transport by OATPs", "setting": "[7]", "result": "transport was demonstrated"}]}
{"molecule": "Microcystin-RR [MC-RR]", "values": [{"measurement": "MC congener transport (screen)", "setting": "[1]", "result": "transported all tested MC-congeners"}, {"measurement": "time after which nearly linear uptake plateaus", "setting": "[1]", "result": 12, "unit": "h"}, {"measurement": "MC congener transport (screen)", "setting": "[2]", "result": "absence of MC transport"}, {"measurement": "MC congener transport (screen)", "setting": "[4]", "result": "did not transport any of the four MC-congeners tested"}, {"measurement": "MC congener transport (screen)", "setting": "[5]", "result": "did not transport any of the four MC-congeners tested"}, {"measurement": "inhibition of ser/thrPP activities", "setting": "[6]", "result": "approximately equimolar concentrations"}, {"measurement": "MC congener transport by OATPs", "setting": "[7]", "result": "lacked transport"}]}
{"molecule": "C[C@H](CCC(=O)NCCS(=O)(=O)O)[C@H]1CC[C@H]2[C@@H]3[C@H](O)C[C@@H]4C[C@H](O)CC[C@]4(C)[C@H]3C[C@H](O)[C@]12C", "note": "[TCA, taurocholic acid]", "values": [{"measurement": "transport of Oatp substrate (uptake vs empty vector cells)", "setting": "[11]", "result": "transported"}, {"measurement": "transport of Oatp substrate (uptake vs empty vector cells)", "setting": "[12]", "result": "did not transport any of the three substrates"}, {"measurement": "transport of Oatp substrate (uptake vs empty vector cells)", "setting": "[13]", "result": "did not transport any of the three substrates"}, {"measurement": "transport of Oatp substrate (uptake vs empty vector cells)", "setting": "[14]", "result": "none of the other zfOatps transported"}, {"measurement": "transport of Oatp substrate (uptake vs empty vector cells)", "setting": "[15]", "result": "none of the other zfOatps transported"}, {"measurement": "transport of Oatp substrate (uptake vs empty vector cells)", "setting": "[16]", "result": "did not transport any of the three substrates"}]}
{"molecule": "C[C@]12CC[C@@H]3c4ccc(OS(=O)(=O)O)cc4CC[C@H]3[C@@H]1CCC2=O", "note": "[E3S, estrone sulfate ammonium salt]", "values": [{"measurement": "[3H] E3S transport, prolonged uptake", "setting": "[12]; [20]", "result": "no [^3H] E3S transport was observed"}, {"measurement": "[3H] E3S transport, prolonged uptake", "setting": "[13]; [20]", "result": "no [^3H] E3S transport was observed"}]}
{"molecule": "CN(Cc1cnc2nc(N)nc(N)c2n1)c1ccc(C(=O)N[C@@H](CCC(=O)O)C(=O)O)cc1", "note": "[MTX, methotrexate disodium salt]", "values": [{"measurement": "transport of Oatp substrate (uptake vs empty vector cells)", "setting": "[11]", "result": "transported"}, {"measurement": "transport of Oatp substrate (uptake vs empty vector cells)", "setting": "[12]", "result": "did not transport any of the three substrates"}, {"measurement": "transport of Oatp substrate (uptake vs empty vector cells)", "setting": "[13]", "result": "did not transport any of the three substrates"}, {"measurement": "transport of Oatp substrate (uptake vs empty vector cells)", "setting": "[17]", "result": "none of the other zfOatps transported"}, {"measurement": "transport of Oatp substrate (uptake vs empty vector cells)", "setting": "[18]", "result": "none of the other zfOatps transported"}, {"measurement": "transport of Oatp substrate (uptake vs empty vector cells)", "setting": "[14]", "result": "none of the other zfOatps transported"}, {"measurement": "transport of Oatp substrate (uptake vs empty vector cells)", "setting": "[15]", "result": "none of the other zfOatps transported"}, {"measurement": "transport of Oatp substrate (uptake vs empty vector cells)", "setting": "[16]", "result": "did not transport any of the three substrates"}, {"measurement": "transport of Oatp substrate (uptake vs empty vector cells)", "setting": "[19]", "result": "did not transport any of the three substrates"}]}
